From patent publication US5753664A, “Heterocyclic compounds, their production and use” (Takeda Chemical Industries, Ltd., priority 1995, dated 1998)

Legend:
[1] = tested on: human prostatic carcinoma cells PC-3; assay: Inhibitory action against the growth of subcutaneously implanted tumor (Test Example 2, subcutaneous dosing); format: in vivo, human; BALB/c nu/nu mouse; details: 80 mg/kg s.c., Mon/Wed/Fri for 3 weeks; for Tumor volume gain: 46th day after transplantation, mean ± SD; for T/C: 46th day, ratio of tumor volume gain treated/control
Description: Inhibitory action of the test compounds against the growth of subcutaneously implanted tumor
The human prostatic carcinoma cells PC-3, which are maintained in vitro, were harvested using 0.05% trypsin, washed with Ham's F12K medium containing 10% serum, and then suspended in PBS (phosphate-buffered saline) at a concentration of 3×10^7 cells/ml. The aliquot of 100 μl was transplanted into the right central flank region of a 7-week old, male BALB/c nu/nu mouse using a syringe with a 25 gauge needle. After the size of the resulting tumor mass was measured on the 25th day after the transplantation, the mice were divided into groups of five animals (the average tumor volume of each group was between […]), and then the treatment with test compounds was commenced. Tumor volume was calculated according to the formulation: tumor volume =0.5×(the longest diameter)×(the shortest diameter)^2 after two-dimensional measurement of the tumor mass by a caliper. The test compounds were suspended in 0.5% methylcellulose/physiological saline, and subcutaneously injected at a volume of 10 μl/g body weight.
Thereafter the test compounds were administered every Monday, Wednesday and Friday for 3 weeks. The inhibitory action was assessed on the 46th day after the transplanation by the ratio of tumor volume gain of treated groups to that of the control group(T/C %). The dosage of the test compounds was expressed as mg/kg/shot.

[2] = tested on: Prostate carcinoma cell line PC-3; assay: In vitro prostate carcinoma cell proliferation inhibition assay (MTT); format: cell-based, human; details: Homo sapiens, 72 h; PC-3, 3 days incubation, MTT; read-out: IC50 PC-3
Description: In vitro prostate carcinoma cell proliferation inhibition assay
Prostate carcinoma cell line PC-3 cells were suspended in Ham's F-12K medium (Flow Laboratories or Dainippon Pharmaceutical Co,. Ltd) supplemented with 10% fetal calf serum, and seeded in a 96-well microtiter plate (5000 cells/50 or 75 μl/well). The plate was then incubated in a 5% CO2 incubator at 37° C. On the following day, a 3-fold dilution series with the medium with serum of the test compound in N,N-dimethylformamide (DMF) (50 or 25 μl/well) were added (final volume […]) and the plate was incubated for another 3 days. Following addition of a thiazolyl-tetrazolium (MTT) solution, absorbance based on the viable cell number was determined "Tada et al., Journal of Immunological Methods, 93, 157 (1986)". With the estimated cell number in the control group to which the test compound solution was not added being taken as 100%, the percentage of the estimated cell number in each test group was determined and the concentration (IC50 value) of the test compound which was required for 50% inhibition of the estimated viable cell number in the control group was calculated.

[3] = tested on: human prostatic carcinoma cells PC-3; assay: Inhibitory action against the growth of subcutaneously implanted tumor (Test Example 3, oral dosing); format: in vivo, human; BALB/c nu/nu mouse; details: 75 mg/kg p.o., once a day for 3 weeks
Description: Inhibitory action of the test compound against the growth of subcutaneously implanted tumor
The human prostatic carcinoma cells PC-3, which are maintained in vitro, were harvested using 0.05% trypsin, washed with Ham's F12K medium containing 10% serum, and then suspended in PBS (phosphate-buffered saline) at a concentration of 3×10^7 cells/ml. The aliquot of 100 μl was transplanted into the right central flank region of a 7-week old, male BALB/c nu/nu mouse using a syringe with a 25 guage needle. After the size of the resulting tumor mass was measured on the 32nd day after the transplantation, the mice were divided into groups of five animals (the average tumor volume of each group was between 273 and 293 mm^3), and then the treatment with test compound was commenced. Tumor volume was calculated according to the formulation: tumor volume =0.5×(the longest diameter)×(the shortest diameter)2 after two-dimensional measurement of the tumor mass by a caliper. The test compound was suspended in 0.5% methylcellulose/physiological saline, and orally administered at a volume of 10 μl/g body weight. […] The inhibitory action was assessed on the 53rd day after the transplanation, the first day after the last administration, by the ratio of tumor volume gain of treated groups to that of the control group (T/C %). The dosage of the test compounds was expressed as mg/kg/shot.

Compound: Cn1c(SCc2ccc(C(=O)c3ccc(Cl)cc3)cc2)nc2ccsc2c1=O [Example 7, 2-[4-(4-Chlorobenzoyl)benzyl]thio-3-methylthieno-[3,2-d]pyrimidin-4(3H)-one]
- Tumor volume gain [1]: 445 ± 110 mm^3
- T/C [1]: 49%

Compound: Cc1cccc2nc(SCc3ccc(C(=O)c4ccc(Cl)cc4)cc3)n(C)c(=O)c12 [Example 42, 2-[4-(4-Chlorobenzoyl)benzylthio]-3,5-dimethyl-quinazolin-4-one]
- Tumor volume gain [1]: 329 ± 252 mm^3
- T/C [1]: 36%

Compound: O=C(c1ccc(Cl)cc1)c1ccc(Cn2ccn3c(=O)c4c(nc23)CCCC4)cc1 [Example 189, 1-[4-(4-Chlorobenzoyl)benzyl]-6,7,8,9-tetrahydroimidazo[2,1-b]quinazolin-5(1H)-one]
- IC50 [2]: 1.9 nM
- Tumor volume gain ([3]; 53rd day after transplantation, mean ± SD): 697 ± 199 mm^3
- T/C ([3]; 53rd day, ratio of tumor volume gain treated/control): 53%
